Common to all, as to type: in vivo
For data set [1], the system named is male Wister rats. Kind of data set: Effect on yawning behavior induced by apomorphine. To be noted: s.c. On the procedure:
Effect on yawning behavior
Male Wister rats (weighing 200 to 300 g) were used, with 10 rats in each group. The rat was placed into a plastics cage (17×24×12 cm) with a floor mat and was then habituated for 30 minutes. Peptide A, peptide B, CCK-8 or the above-mentioned diluent serving as a control was subcutaneously given to the animal. Thirty minutes thereafter, 0.03 mg/kg of apomorphine was subcutaneously given to the animal. The number of yawns induced by apomorphine was counted during a period of 30 minutes following administration of apomorphine. The test was conducted in a soundproof compartment for each animal. Wilcoxon rank-sum test was resorted to for statistical treatment.

In another data set the test system is test animals. Kind of data set: Induction of catalepsy in test animals.
Data set [2] is described as follows: Induction of yawning behavior by the peptide itself. To be noted: yawning thought to be induced by a reduction in the amount of dopamine.
In data set [3] the test system is male Wister rats. Kind of data set: Effect on metabolism of amine in the brain. The conditions noted are these: 1 mg/kg s.c., 1 hour after dosing. On the procedure: Effect on metabolism of amine in the brain
Unfasted male Wister rats (weighing 180 to 220 g) were used. Peptide A or peptide B was subcutaneously given to the animal at a dose of 1 mg/kg, the head was irradiated with microwave 1 hour thereafter, and amine metabolite was extracted from the brain. First, removed tissues were homogenized with 1M formic acid and centrifuged at 20,000×g for 20 minutes, and the supernatant (1 ml) was shaken with 5 ml of ethyl acetate. The 3,4-dihydroxyphenylacetic acid (DOPAC), homovanillic acid (HVA) and 5-hydroxyindoleacetic acid (5-HIAA) in the ethyl acetate layer were analyzed by high-performance liquid chromatography under the following conditions. Chemcosorb, 5-ODS, 20 cm×4.6 mm I.D. was used for a separating column, and a mobile phase (0.1M KH2 PO4 (pH 5.0)-5 mM EDTA-2Na-5% acetonitrile) was passed through the column at a flow rate of 1 ml/min. The electrochemical detector was set to an oxidation potential of +0.8 V.

Data set [4] concerns Male ddy mice. Kind of data set: Effect on hyperlocomotion induced by thyrotropin releasing hormone (TRH). To be noted: s.c. How it is done: Effect on hyperlocomotion induced by thyrotropin releasing hormone (TRH)
Male ddy mice (weighing 18 to 24.5 g) were used. The mice were placed into a transparent acrylic resin cage (26×37×11 cm) installed on Animex meter. Before experiment, the mice were allowed to habituate for 2 hours in the cage to fully lower the activity of the mice. After the completion of habituation, peptide A, peptide B or a diluent (physiological saline containing 1 mg/ml of sodium hydrogencarbonate) serving as a control was subcutaneously given to the mice. Thirty minutes thereafter, 5 mg/kg of TRH was intraperitoneally given to the animals. The activity counts during the period of 60 minutes following the administration of TRH was measured. Student's t-test was resorted to for statistical treatment.

Data set [5] concerns male Wister rats. Kind of data set: Effect on the fixed ratio responding in rats (FR20). To be noted: s.c., 15 min before a 20 min session, dose giving count 50 with control as 100. How it is done:
Effect on the fixed ratio responding in rats
The test was conducted according to the method described in Ahlenius S. and Engel J., Eur. J. Pharm., Vol. 15, 187-192 (1971).
Male Wister rats (weighing 240 to 320 g) were placed into Skinner box (product of Bil-Medika Co., Ltd., Japan, adapted to give a feed when a lever within the box is pressed) and made to learn how to take the food. In this test, one feed was given to the rats when the lever was pressed 20 times, i.e., fixed ratio (FR) 20. The rats showing stable FR20 response were divided into groups each including four rats.
Physiological saline (containing 1 mM of sodium hydrogencarbonate) containing a specified amount of a test compound was subcutaneously given to the rats of one group in a volume of 0.1 ml/100 g. (Physiological saline containing the above-mentioned amount of sodium hydrogencarbonate only was given to the control group). Fifteen minutes after the administration, the test animals were placed in the Skinner box, and the number of times the animals took the feed for 20 minutes was counted. The dose at which the count gained by the group of animals was 50, namely, ED50 value, was determined, with the count gained by the control group calculated as 100. The same procedure as above was repeated with use of the other test compounds.

The test system of a further data set is Male ICR mice. Kind of data set: Inhibitory effect on hyperlocomotion induced by administration of methylphenidate. To be noted: s.c. with methylphenidate 10 mg/kg s.c., 1 hour after administration, 50 with control as 100. On the procedure: Inhibitory effect on hyperlocomotion induced by administration of methylphenidate
Male ICR mice (weighing 24 to 30 g) were divided into groups, each including 10 mice. To one group of mice were subcutaneously given 10 mg/kg of methylphenidate and 0.1 ml/10 g of a saline solution of a specified amount of a test compound and 1 mM of sodium hydrogencarbonate. One hour after the administration, the test animals were checked for hyperlocomotion, which was measured with use of a device for measuring locomotion of small animals (wherein the motion of an animal shifts the center of graavity of the device to actuate a microswitch for the measurement of the amount of motion, see Folia Pharmacologica Japonica, 74, 629-639 (1978). For a control group, the same procedure as above was repeated except that the saline solution given was free from any test compound. The concentration of the test compound at which the result achieved by the group of animals was 50, namely, ED50 value, was determined, with the measurement obtained by the control group calculated as 100. The other compounds were tested in the same manner as above.

Data set [6] deals with Male ddy mice. Kind of data set: Effect on climbing behavior induced by apomorphine (Pharmacological Test 7). The conditions noted are these: control 9.8 ± 0.7. On the procedure:
Effect on climbing behavior induced by apomorphine
Male ddy mice (weighing 20 to 30 g) were used, with 10 mice in each group. Each mouse was placed into a cylindrical cage, 12 cm in diameter and 14 cm in height, made up of vertical rods of 2 mm in diameter spaced apart at a distance of 10 mm in a circular arrangement. The mouse was allowed to stand therein for 2 hours. Physiological saline containing a specified amount of a test compound (and 1 mM of sodium hydrogencarbonate) was subcutaneously given to one group of mice in a volume of 1 ml/10 g. (The same dose of saline only was given to a control group). […] The test was carried out in soundproof compartments.
0: All the four legs are on the floor.
2: At least three legs are on rods.
The other compounds were tested in the same manner as above. The test was carried out in soundproof compartments. Student's t-test was resorted to for satistical treatment.

Where a SMILES comes first, the peptide text is derived from it.

As to `CSCC[C@H](NC(=O)[C@H](Cc1ccc(OS(=O)(=O)O)cc1)NC(=O)[C@@H](N)CC(=O)O)C(=O)NCC(=O)N[C@@H](Cc1c[nH]c2ccccc12)C(=O)N[C@@H](CCSC)C(=O)N[C@@H](CC(=O)O)C(=O)N[C@@H](Cc1ccccc1)C(N)=O` [CCK-8, Asp--Tyr(SO3 H)--Met--Gly--Trp--Met--Asp--Phe--NH2], the “Effect on yawning behavior induced by apomorphine (in words)” value with male Wister rats [1] was “is not inhibited by CCK-8”. Moreover, in the data set on test animals, the “Induction of catalepsy (side effect, in words)” value is recorded as “induces catalepsy”. In addition, the “Induction of yawning behavior (in words)” value in data set [2] is “induces no yawning behavior whatsoever”.

For `CSCC[C@H](NC(=O)[C@H](Cc1ccc(OS(=O)(=O)O)cc1)NC(=O)[C@H](CC(=O)O)NC(=O)CCCC(=O)O)C(=O)NCC(=O)N[C@@H](Cc1c[nH]c2ccccc12)C(=O)N[C@@H](CCSC)C(=O)N[C@@H](CC(=O)O)C(=O)N[C@@H](Cc1ccccc1)C(N)=O` [Peptide A, Glt--Asp--Tyr(SO3 H)--Met--Gly--Trp--Met--Asp--Phe--NH2], in the data set on male Wister rats [3], the “Increase of DOPAC content in hypothalamus” value was “about 60%”; the “Influence on content of metabolite (DOPAC, HVA, 5-HIAA) in frontal cortex, limbic forebrain, and striatum” value is “Neither of peptide A and peptide B was found to influence”. For the same compound, the “Effect on TRH-induced hyperlocomotion (in words)” value in the data set with Male ddy mice [4] is on record as “inhibit the hyperlocomotion induced by TRH”.

For the compound `CSCC[C@H](NC(=O)[C@H](Cc1ccc(OS(=O)(=O)O)cc1)NC(=O)[C@H](CC(=O)O)NC(=O)[C@@H]1CCC(=O)N1)C(=O)NCC(=O)N[C@@H](Cc1c[nH]c2ccccc12)C(=O)N[C@@H](CCSC)C(=O)N[C@@H](CC(=O)O)C(=O)N[C@@H](Cc1ccccc1)C(N)=O` [Peptide B, pGlu--Asp--Tyr(SO3 H)--Met--Gly--Trp--Met--Asp--Phe--NH2], in the data set on male Wister rats [3], the “Increase of DOPAC content in hypothalamus” value is given as “about 60%”; the “Influence on content of metabolite (DOPAC, HVA, 5-HIAA) in frontal cortex, limbic forebrain, and striatum” value was “Neither of peptide A and peptide B was found to influence”. Also, the “Effect on TRH-induced hyperlocomotion (in words)” value in the data set on Male ddy mice [4] is “inhibit the hyperlocomotion induced by TRH”.

For `CSCC[C@H](NC(=O)[C@H](Cc1ccc(OS(=O)(=O)O)cc1)NC(=O)CCCC(=O)O)C(=O)NCC(=O)N[C@@H](Cc1c[nH]c2ccccc12)C(=O)N[C@@H](CCSC)C(=O)N[C@@H](CC(=O)O)C(=O)N[C@@H](Cc1ccccc1)C(N)=O` [Peptide E, Glt--Tyr(SO3 H)--Met--Gly--Trp--Met--Asp--Phe--NH2] (HELM PEPTIDE1{[O=C(O)CCCC(=O)[*:2]].[O=C([C@H](Cc1ccc(OS(=O)(=O)O)cc1)N[*:1])[*:2]].M.G.W.M.D.F.[am]}$$$$V2.0), in the data set on male Wister rats [5], the “ED50, inhibition of FR20 responding” value was 0.004 mg/kg.

Turning to “Pht--Tyr(SO3 H)--Met--Gly--Trp--Met--Asp--Phe--NH2 [Peptide F]”, in the data set with Male ICR mice, the “ED50, inhibition of methylphenidate-induced hyperlocomotion” value was 0.2513 mg/kg. For the same compound, the “Average: Mean ± S.E. (total of 7 scores), climbing behavior” value was 7.7 ± 0.6 in the data set with Male ddy mice [6] (0.1 mg/kg s.c.), 8.0 ± 0.8 in the data set on Male ddy mice [6] (0.3 mg/kg s.c.) and 6.8 ± 0.8 in the data set with Male ddy mice [6] (1.0 mg/kg s.c.). Also, in the data set with male Wister rats [5], the “ED50, inhibition of FR20 responding” value was determined as 0.0167 mg/kg.

Source of the values: USRE32534E, “Peptides, process for preparing the same and psychodepressant compositions containing the same” (Amano Pharmaceutical Co., Ltd., priority 1982, dated 1987).
